Test results reported in EP4603105A1, “PHARMACEUTICAL COMPOSITION CONTAINING CYCLIC COMPOUND HAVING SELECTIVE KRAS INHIBITORY EFFECT AGAINST HRAS AND NRAS” (CHUGAI SEIYAKU KABUSHIKI KAISHA, priority 2022, dated 2024).
Read-outs that look alike come from different tables or passages of the source.

How the values were obtained:
[1] = biological target: GDP-bound NRAS wild-type protein (Homo sapiens, UniProt P01111); experiment: Binding to NRAS by surface plasmon resonance (SPR), KD and KD ratio to KRAS
Chain of GDP-bound NRAS wild-type protein (P01111 whole entry): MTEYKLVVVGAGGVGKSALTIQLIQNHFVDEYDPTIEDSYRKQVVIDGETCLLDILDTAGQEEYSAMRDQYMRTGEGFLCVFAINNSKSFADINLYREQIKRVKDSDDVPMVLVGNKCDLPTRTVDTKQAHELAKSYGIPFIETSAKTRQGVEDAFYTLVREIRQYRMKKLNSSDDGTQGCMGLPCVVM
Outline: (§1)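 Compound binding is evaluated by SPR single-cycle kinetics, with concentrations added intermittently from low to high for 75 s each. Target surfaces carry GDP-loaded biotinylated Avi-RAS at about 100–300 RU, regenerated after each cycle; temperature 30°C. A 1:1 binding model gives KD.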

[2] = biological target: GDP-bound KRAS wild-type protein (Homo sapiens, UniProt P01116); experiment: Binding to KRAS by surface plasmon resonance (SPR), dissociation constant KD
Chain of GDP-bound KRAS wild-type protein (P01116 1-188 isoform P01116-2): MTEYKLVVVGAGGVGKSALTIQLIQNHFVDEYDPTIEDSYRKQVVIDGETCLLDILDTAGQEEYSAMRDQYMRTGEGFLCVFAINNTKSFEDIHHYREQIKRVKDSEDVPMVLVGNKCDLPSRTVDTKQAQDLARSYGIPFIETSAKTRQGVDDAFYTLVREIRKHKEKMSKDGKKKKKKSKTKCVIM
Outline: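 Measured at 30°C: SPR with GDP-loaded, E. coli-expressed biotin-Avi RAS captured (~100–300 RU), ascending 75 s compound injections, HBS pH 7.4 with GDP, MgCl2, 4% DMSO. KD from 1:1 fit.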

[3] = tested on: human lung cancer strain NCI-H441; experiment: NCI-H441 cell proliferation inhibitory activity (CellTiter-Glo, 4 days); format: cell-based; conditions: read-out: NCl-H441 IC50
Outline: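 Proliferation was scored by […] measured after the reagent was added to cultures kept at 37°C in 5% carbon dioxide.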

HRAS wild-type protein = HRAS wild-type protein (Homo sapiens, UniProt P01112); experiment: Binding to HRAS by surface plasmon resonance (SPR), KD and KD ratio to KRAS
Chain of HRAS wild-type protein (P01112 whole entry): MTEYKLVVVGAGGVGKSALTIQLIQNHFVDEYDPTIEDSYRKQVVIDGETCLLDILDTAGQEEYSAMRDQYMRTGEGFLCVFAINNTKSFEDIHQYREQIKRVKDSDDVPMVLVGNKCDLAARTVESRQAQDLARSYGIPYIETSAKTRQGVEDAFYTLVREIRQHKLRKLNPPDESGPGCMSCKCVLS
Outline: as §1

[4] = ratio of KD with respect to GDP-bound NRAS wild-type protein to KD with respect to KRAS
[5] = Single Cycle Kinetics, 1:1 binding model
[6] = 50% proliferation inhibitory concentration, four days
[7] = ratio of KD with respect to HRAS wild-type protein to KD with respect to KRAS
[8] = ratio of KD for GDP-bound NRAS wild-type protein to KD for KRAS
[9] = ratio of KD for HRAS wild-type protein to KD for KRAS

CCO[C@@H]1C[C@H]2C(=O)NC3(CCC3)C(=O)N(C)[C@@H](C(CC)CC)C(=O)N(C)[C@H](C(=O)N(C)C)CC(=O)N(C)[C@@H](CC(C)C)C(=O)N[C@@H]([C@@H](C)CC)C(=O)N(C)CC(=O)N(C)[C@H]3C/C=C\CCN(C3=O)[C@@H](Cc3ccc(C(F)(F)F)cc3)C(=O)N(C)CC(=O)N[C@@H](CCc3ccc4sccc4c3)C(=O)N2C1 [PP1225]
NRAS /KRAS [1, 4]: AA (a compound having 20 or more is denoted as AA)
Kd [2, 5]: 1.1 nM
IC50 [3, 6]: 92.5 nM
HRAS /KRAS (HRAS wild-type protein; [7]): A (a compound having 10 or more and less than 20 is denoted as A)

CCO[C@@H]1C[C@H]2C(=O)NC3(CCCC3)C(=O)N(C)[C@@H](C3CCC3)C(=O)N(C)[C@H](C(=O)N(C)C)CC(=O)N(C)[C@@H](CC(C)C)C(=O)N[C@@H]([C@@H](C)CC)C(=O)N(C)CC(=O)N(C)[C@H]3C/C(F)=C\CCN(C3=O)[C@@H](Cc3ccc(C(F)(F)F)cc3)C(=O)N(C)CC(=O)N[C@@H](CCc3cc(F)c(C(F)(F)F)c(F)c3)C(=O)N2C1 [PP3516]
NRAS /KRAS [1, 8]: B (a compound having 3 or more and less than 10 is denoted as B)
Kd ([2]; Single Cycle Kinetics): 1.4 nM
IC50 ([3]; NCI-H441 cells, 4 days): 55.4 nM
HRAS /KRAS (HRAS wild-type protein; [9]): B (a compound having 3 or more and less than 10 is denoted as B)

CCC(CC)[C@H]1C(=O)N(C)[C@H](C(=O)N(C)C)CC(=O)N(C)[C@@H](COC)C(=O)N[C@@H]([C@@H](C)CC)C(=O)N(C)CC(=O)N(C)[C@H]2C/C=C\CCN(C2=O)[C@@H](Cc2ccc(C(F)(F)F)cc2)C(=O)N(C)CC(=O)N[C@@H](CCc2ccc(Cl)c(Cl)c2)C(=O)N2C[C@H](OC(C)C)C[C@H]2C(=O)NC2(CC(C)(C)C2)C(=O)N1C [PP2533]
NRAS /KRAS [1, 8]: AA (a compound having 20 or more is denoted as AA)
Kd ([2]; 1:1 binding model): 0.49 nM
IC50 ([3]; NCI-H441 cells, 4 days): 20 nM
HRAS /KRAS (HRAS wild-type protein; [9]): A (a compound having 10 or more and less than 20 is denoted as A)

CCC[C@H]1C(=O)N[C@@H](C2CCCC2)C(=O)N(C)CC(=O)N(C)[C@H]2C/C=C\CCN(C2=O)[C@@H](Cc2ccc(C)cc2)C(=O)N(C)CC(=O)N[C@@H](CCc2ccc(C(F)(F)F)c(OC)c2)C(=O)N2CC3(CC3)C[C@H]2C(=O)N(C)C2(CCC2)C(=O)N(C)[C@@H](C(CC)CC)C(=O)N(C)[C@H](C(=O)N(C)C)CC(=O)N1C [PP3316]
NRAS /KRAS [1, 8]: A (a compound having 10 or more and less than 20 is denoted as A)
Kd ([2]; Single Cycle Kinetics): 0.17 nM
IC50 ([3]; NCI-H441 cells, 4 days): 11.2 nM
HRAS /KRAS (HRAS wild-type protein; [9]): B (a compound having 3 or more and less than 10 is denoted as B)

CC[C@H](C)[C@@H]1NC(=O)[C@H](CC)N(C)C(=O)C[C@@H](C(=O)N(C)C)N(C)C(=O)[C@H](C2CCCC2)N(C)C(=O)C2(CCCC2)NC(=O)[C@@H]2CCCN2C(=O)[C@H](CCc2cc(F)c(C(F)(F)F)c(F)c2)NC(=O)CN(C)C(=O)[C@H](Cc2ccc(C(F)(F)F)cc2)N2CC/C=C\C[C@@H](C2=O)N(C)C(=O)CN(C)C1=O [PP1273]
NRAS /KRAS [1, 4]: A (a compound having 10 or more and less than 20 is denoted as A)
Kd [2, 5]: 0.12 nM
IC50 [3, 6]: 16.5 nM
HRAS /KRAS (HRAS wild-type protein; [7]): B (a compound having 3 or more and less than 10 is denoted as B)

CCC[C@H]1C(=O)N[C@@H](C2CCCC2)C(=O)N(C)CC(=O)N(C)[C@H]2C/C=C\CCN(C2=O)[C@@H](Cc2ccc(C)cc2)C(=O)N(C)CC(=O)N[C@@H](CCc2ccc(C(F)(F)F)c(Cl)c2)C(=O)N2CC3(CC3)C[C@H]2C(=O)N(C)C2(CCC2)C(=O)N(C)[C@@H](CC(C)(C)C)C(=O)N(C)[C@H](C(=O)N(C)C)CC(=O)N1C [PP3328]
NRAS /KRAS [1, 8]: A (a compound having 10 or more and less than 20 is denoted as A)
Kd ([2]; Single Cycle Kinetics): 0.026 nM
IC50 ([3]; NCI-H441 cells, 4 days): 1.7 nM
HRAS /KRAS (HRAS wild-type protein; [9]): B (a compound having 3 or more and less than 10 is denoted as B)

CCC[C@H]1C(=O)N[C@@H]([C@@H](C)CC)C(=O)N(C)CC(=O)N(C)[C@H]2C/C=C\CCN(C2=O)[C@@H](Cc2ccc(C)cc2)C(=O)N(C)CC(=O)N[C@@H](CCc2cc(F)c(C(F)(F)F)c(F)c2)C(=O)N2CC3(CC3)C[C@H]2C(=O)N(C)C2(CCC2)C(=O)N(C)[C@@H](CC(C)(C)C)C(=O)N(C)[C@H](C(=O)N(C)C)CC(=O)N1C [PP3333]
NRAS /KRAS [1, 8]: B (a compound having 3 or more and less than 10 is denoted as B)
Kd ([2]; Single Cycle Kinetics): 0.019 nM
IC50 ([3]; NCI-H441 cells, 4 days): 4.5 nM
HRAS /KRAS (HRAS wild-type protein; [9]): B (a compound having 3 or more and less than 10 is denoted as B)

C#CC[C@H]1C(=O)N[C@@H]([C@@H](C)CC)C(=O)N(C2CC2)CC(=O)N(C)[C@H]2C/C=C\CCN(C2=O)[C@@H](Cc2ccc(C(F)(F)F)cc2)C(=O)N(C)CC(=O)N[C@@H](CCc2ccc(C(F)(F)F)c(Cl)c2)C(=O)N2C[C@H](OCC)C[C@H]2C(=O)N(C)C2(CCC2)C(=O)N(C)[C@@H](C2CCCC2)C(=O)N(C)[C@H](C(=O)N(C)C)CC(=O)N1C [PP3246]
NRAS /KRAS [1, 8]: A (a compound having 10 or more and less than 20 is denoted as A)
Kd ([2]; Single Cycle Kinetics): 0.086 nM
IC50 ([3]; NCI-H441 cells, 4 days): 3.8 nM
HRAS /KRAS (HRAS wild-type protein; [9]): A (a compound having 10 or more and less than 20 is denoted as A)

CCCOC[C@H]1C(=O)N[C@@H]([C@@H](C)CC)C(=O)N(C)CC(=O)N(C)[C@H]2C/C=C\CCN(C2=O)[C@@H](Cc2ccc(C)cc2)C(=O)N(C)CC(=O)N[C@@H](CCc2ccc(C(F)(F)F)c(Cl)c2)C(=O)N2C[C@@H](C)C[C@H]2C(=O)NC2(CC(C)(C)C2)C(=O)N(C)[C@@H](C2CCCC2)C(=O)N(C)[C@H](C(=O)N(C)CC)CC(=O)N1C [PP2467]
NRAS /KRAS [1, 8]: A (a compound having 10 or more and less than 20 is denoted as A)
Kd ([2]; 1:1 binding model): 0.26 nM
IC50 ([3]; NCI-H441 cells, 4 days): 21.8 nM
HRAS /KRAS (HRAS wild-type protein; [9]): B (a compound having 3 or more and less than 10 is denoted as B)

CCO[C@@H]1C[C@H]2C(=O)NC3(CCC3)C(=O)N(C)[C@@H](C(CC)CC)C(=O)N(C)[C@H](C(=O)N(C)C)CC(=O)N(C)[C@@H](CC)C(=O)N[C@@H]([C@@H](C)CC)C(=O)N(C)CC(=O)N(C)[C@H]3C/C=C\CCN(C3=O)[C@@H](Cc3ccc(C(F)(F)F)cc3)C(=O)N(C)CC(=O)N[C@@H](CCc3ccc(C(F)(F)F)c(OC)c3)C(=O)N2C1 [PP1207]
NRAS /KRAS [1, 4]: AA (a compound having 20 or more is denoted as AA)
Kd [2, 5]: 0.21 nM
IC50 [3, 6]: 29.9 nM
HRAS /KRAS (HRAS wild-type protein; [7]): A (a compound having 10 or more and less than 20 is denoted as A)

CCC[C@H]1C(=O)N[C@@H]([C@@H](C)CC)C(=O)N(C)CC(=O)N(C)[C@H]2C/C=C\CCN(C2=O)[C@@H](Cc2ccc(C(F)F)cc2)C(=O)N(C)CC(=O)N[C@@H](CCc2ccc(Cl)c(Cl)c2)C(=O)N2C[C@H](OC(C)C)C[C@H]2C(=O)NC2(CC(C)(C)C2)C(=O)N(C)[C@@H](C(CC)CC)C(=O)N(C)[C@H](C(=O)N(C)C)CC(=O)N1C [PP2535]
NRAS /KRAS [1, 8]: AA (a compound having 20 or more is denoted as AA)
Kd ([2]; 1:1 binding model): 0.54 nM
IC50 ([3]; NCI-H441 cells, 4 days): 26.8 nM
HRAS /KRAS (HRAS wild-type protein; [9]): A (a compound having 10 or more and less than 20 is denoted as A)

CCC[C@H]1C(=O)N[C@@H]([C@@H](C)CC)C(=O)N(C)CC(=O)N(C)[C@H]2C/C=C\CCN(C2=O)[C@@H](Cc2ccc(C)cc2)C(=O)N(C)CC(=O)N[C@@H](CCc2ccc(C(F)(F)F)c(OC)c2)C(=O)N2CC[C@H](OC)[C@H]2C(=O)N(C)C2(CCC2)C(=O)N(C)[C@@H](C2CCCC2)C(=O)N(C)[C@H](C(=O)N(C)C)CC(=O)N1C [PP3249]
NRAS /KRAS [1, 8]: A (a compound having 10 or more and less than 20 is denoted as A)
Kd ([2]; Single Cycle Kinetics): 0.059 nM
IC50 ([3]; NCI-H441 cells, 4 days): 4.2 nM
HRAS /KRAS (HRAS wild-type protein; [9]): B (a compound having 3 or more and less than 10 is denoted as B)

CCO[C@@H]1C[C@H]2C(=O)NC3(CC(C)(C)C3)C(=O)N(C)[C@@H](C(CC)CC)C(=O)N(C)[C@H](C(=O)N(C)C)CC(=O)N(C)[C@@H](COC)C(=O)N[C@@H]([C@@H](C)CC)C(=O)N(C)CC(=O)N(C)[C@H]3C/C=C\CCN(C3=O)[C@@H](CC3CCC(F)(F)CC3)C(=O)N(C)CC(=O)N[C@@H](CCc3ccc(C(F)(F)F)c(Cl)c3)C(=O)N2C1 [PP2444]
NRAS /KRAS [1, 8]: A (a compound having 10 or more and less than 20 is denoted as A)
Kd ([2]; 1:1 binding model): 0.59 nM
IC50 ([3]; NCI-H441 cells, 4 days): 32.3 nM
HRAS /KRAS (HRAS wild-type protein; [9]): A (a compound having 10 or more and less than 20 is denoted as A)

CC[C@H](C)[C@@H]1NC(=O)[C@H](CC)N(C)C(=O)C[C@@H](C(=O)N(C)C)N(C)C(=O)[C@H](C2CCCC2)N(C)C(=O)C2(CCC2)NC(=O)[C@@H]2C[C@@H](OC)CN2C(=O)[C@H](CCc2cc(F)c(C(F)(F)F)c(F)c2)NC(=O)CN(C)C(=O)[C@H](Cc2ccc(C(F)(F)F)cc2)N2CC/C=C\C[C@@H](C2=O)N(C)C(=O)CN(C)C1=O [PP1130]
NRAS /KRAS [1, 4]: A (a compound having 10 or more and less than 20 is denoted as A)
Kd [2, 5]: 0.035 nM
IC50 [3, 6]: 19.6 nM
HRAS /KRAS (HRAS wild-type protein; [7]): B (a compound having 3 or more and less than 10 is denoted as B)

CCOC[C@H]1C(=O)N[C@@H]([C@@H](C)CC)C(=O)N(C)CC(=O)N(C)[C@H]2C/C=C\CCN(C2=O)[C@@H](Cc2ccc(C)cc2)C(=O)N(C)CC(=O)N[C@@H](CCc2ccc(C(F)(F)F)c(Cl)c2)C(=O)N2C[C@@H](C)C[C@H]2C(=O)NC2(CC(C)(C)C2)C(=O)N(C)[C@@H](C2CCCC2)C(=O)N(C)[C@H](C(=O)N(C)C)CC(=O)N1C [PP2394]
NRAS /KRAS [1, 8]: A (a compound having 10 or more and less than 20 is denoted as A)
Kd ([2]; 1:1 binding model): 0.12 nM
IC50 ([3]; NCI-H441 cells, 4 days): 8.3 nM
HRAS /KRAS (HRAS wild-type protein; [9]): B (a compound having 3 or more and less than 10 is denoted as B)
